Data reported in patent US10189785B2, “Heterocyclic compound” (TAKEDA PHARMACEUTICAL COMPANY LIMITED, priority 2015, dated 2019).

Legend:
[1] = system: lung adenocarcinoma cell line HCC4006; experiment: HCC4006 cell growth inhibition test (Test Example 2); type: cell-based; details: HCC4006 cells, culture for 5 days, CellTiter-Glo; for inhibition at 1 µM: read-out: Rate of inhibition (%) at 1 μM
Protocol: A lung adenocarcinoma cell line HCC4006 (ATCC) was cultured using an RPMI-1640 medium (Wako Pure Chemical Industries, Ltd.) containing 10% fetal bovine serum and penicillin/streptomycin. 250 cells per well were inoculated into 40 μL of a medium in a 384-well culture plate. On the next day, 10 μL of each test compound was added to the cells. After culture for 5 days, the medium was discarded, and 30 μL of CellTiter-Glo Luminescent Cell Viability Assay solution (Promega Corp., Fitchburg, Wis., U.S.) was added to each well. Light emission signals were measured using EnVision (PerkinElmer, Inc., Waltham, Mass., U.S.).
The rate of inhibition (%) by the test compound was calculated according to the following expression: Rate of inhibition (%)=(1−(Count of the test compound−Blank)/(Control−Blank))×100
In the above expression, a count under compound non-addition conditions was indicated as a control, and a count under cell-free conditions was indicated as a blank.

[2] = target: T1, SPT (SPT2-expressing membrane fraction: human SPT1, human SPT2 and human ssSPTa) (Homo sapiens, UniProt O15269+O15270); experiment: SPT enzyme inhibition test (Test Example 1); type: biochemical; details: for inhibition at 1 µM: read-out: Rate of inhibition (%) at 1 μM
T1 construct: Full-length human SPT1, human SPT2 and human ssSPTa used; made in house; host or cells: FreeStyle 293 cells (pcDNA3.1 vectors, cotransfection); crude membrane fraction used
T1 sequence (O15269 1-473): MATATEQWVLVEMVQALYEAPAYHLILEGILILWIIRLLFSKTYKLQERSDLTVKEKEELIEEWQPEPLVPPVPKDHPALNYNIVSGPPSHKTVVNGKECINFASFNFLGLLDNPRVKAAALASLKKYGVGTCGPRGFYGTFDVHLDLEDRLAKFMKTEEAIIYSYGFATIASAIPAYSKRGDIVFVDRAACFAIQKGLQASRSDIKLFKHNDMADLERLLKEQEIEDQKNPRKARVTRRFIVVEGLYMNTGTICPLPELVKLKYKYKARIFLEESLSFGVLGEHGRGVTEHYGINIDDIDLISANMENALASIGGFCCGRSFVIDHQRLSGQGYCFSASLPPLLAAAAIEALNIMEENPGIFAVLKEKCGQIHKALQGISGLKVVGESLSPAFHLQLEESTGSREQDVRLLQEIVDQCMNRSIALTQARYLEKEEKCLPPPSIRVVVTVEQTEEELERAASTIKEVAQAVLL
T1 sequence (O15270 1-562): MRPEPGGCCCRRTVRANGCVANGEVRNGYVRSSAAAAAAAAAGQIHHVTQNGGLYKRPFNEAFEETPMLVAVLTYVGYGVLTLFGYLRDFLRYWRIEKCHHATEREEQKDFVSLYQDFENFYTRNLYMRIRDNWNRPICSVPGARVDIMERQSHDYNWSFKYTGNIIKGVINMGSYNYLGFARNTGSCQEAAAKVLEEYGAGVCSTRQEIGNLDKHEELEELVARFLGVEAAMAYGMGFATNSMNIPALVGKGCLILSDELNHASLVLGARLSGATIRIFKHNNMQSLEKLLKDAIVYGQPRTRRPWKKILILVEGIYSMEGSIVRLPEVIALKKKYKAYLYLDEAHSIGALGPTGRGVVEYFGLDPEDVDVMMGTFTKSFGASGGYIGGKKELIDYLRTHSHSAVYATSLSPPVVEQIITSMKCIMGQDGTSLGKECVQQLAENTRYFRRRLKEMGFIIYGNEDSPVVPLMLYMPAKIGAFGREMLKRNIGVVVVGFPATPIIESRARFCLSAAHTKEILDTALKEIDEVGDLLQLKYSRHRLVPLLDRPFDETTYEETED
T1 sequence (Q969W0 1-71 partner): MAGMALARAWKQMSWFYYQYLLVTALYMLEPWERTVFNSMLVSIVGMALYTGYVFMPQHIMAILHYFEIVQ
Protocol: After culture for 3 days, the cells were recovered and frozen at −80° C. to obtain expressing cells. The frozen cells were suspended in a 50 mM Hepes buffer (pH 7.5) containing 250 mM sucrose, 5 mM ethylenediaminetetraacetic acid (EDTA), 5 mM dithiothreitol (DTT) and Complete, EDTA-free (Roche Applied Science, Penzberg, Upper Bavaria, Germany). The cells were disrupted (on ice, 20,000 rpm, 20 sec×2) using POLYTORON (Central Scientific Commerce, Inc.). After centrifugation at 2000 rpm (850×g) for 10 minutes, the supernatant was recovered. Subsequently, the supernatant was centrifuged at 40,000 rpm (186,010×g) for 60 minutes, and the supernatant was discarded. The pellets were suspended in a 50 mM Hepes buffer (pH 7.5) containing 5 mM EDTA, 5 mM DTT and Complete, EDTA-free, passed through a 40-μm cell strainer and stored at −80° C. The resultant was used as a SPT2-expressing membrane fraction. The protein concentration was determined using CBB Protein Assay with bovine serum albumin used as standards.
5 μL of each test compound was mixed with 10 μL of the 100 μg/mL SPT2-expressing membrane fraction using an assay buffer (100 mM Hepes (pH 8.0) containing 2.5 mM EDTA, 5 mM DTT and 0.01% fatty acid-free bovine serum albumin), and the mixture was left standing at room temperature for 60 minutes. Subsequently, 5 μL of a substrate solution containing 2 mM L-serine and 20 μM palmitoyl CoA was added thereto, and an enzyme reaction was carried out in a 384-well plate using 20 μL in total of the reaction system. After reaction at room temperature for 15 minutes, the reaction was terminated by the addition of 20 μL of a 2% aqueous formic acid solution. Subsequently, 40 μL of acetonitrile containing 600 nM C17-sphinganine (Avanti Polar Lipids, Inc., Alabaster, Ala., U.S.) was added thereto as an internal standard. The reaction sample was subjected to on-line solid-layer extraction using RapidFire 300 (Agilent Technologies Inc., Santa Clara, Calif., U.S.). […] Mass chromatograms were obtained using Analyst software (version 1.5.0, AB SCIEX). Their mass chromatogram areas were respectively calculated, and the rate of inhibition (%) by the test compound was calculated using an area ratio (the value of the reaction product was divided by the value of the internal standard).

[3] = Homo sapiens, 120 h, 1 μM test compound

Row | SMILES | inhibition at 1 µM [2] [%] | Rate of inhibition (%) at 1 μM ([2]; 1 μM test compound, SPT2-expressing membrane fraction) [%] | inhibition at 1 µM [1, 3] [%] | Rate of inhibition (%) at 1 μM ([1]; 1 μM test compound) [%] | inhibition at 0.3 µM ([1]; Homo sapiens, 120 h, 0.3 μM test compound, read-out: Rate of inhibition at 0.3 μM) [%]
1 | COc1ccc(C(=O)N2CC[C@H](NC(=O)c3ccccc3Cl)[C@H](c3ccc(F)cc3)C2)cc1OC (relative stereo) [Example 114B, 2-chloro-N-(cis-1-(3,4-dimethoxybenzoyl)-3-(4-fluorophenyl)piperidin-4-yl)benzamide] | 99 | – | 56 | – | –
2 | COc1ccc(C(=O)N2CCC(NC(=O)c3ccccc3Cl)c3cn(C)nc32)cc1OC (centres unmarked) [Example 3A, 2-Chloro-N-(7-(3,4-dimethoxybenzoyl)-2-methyl-4,5,6,7-tetrahydro-2H-pyrazolo[3,4-b]pyridin-4-yl)benzamide] | 98 | – | 41 | – | –
3 | Cc1cc(NC(=O)C2CC2)sc1C(=O)N1CC[C@@H](NC(=O)c2ccccc2OC(F)(F)F)[C@@H](c2ccccc2)C1 [Example 35B, N-((3S,4R)-1-((5-((cyclopropylcarbonyl)amino)-3-methyl-2-thienyl)carbonyl)-3-phenylpiperidin-4-yl)-2-(trifluoromethoxy)benzamide] | 101 | – | 40 | – | –
4 | COc1ccc(C(=O)N2CC[C@@H](NC(=O)c3ncccc3C(F)(F)F)[C@@H](c3ccccc3)C2)nc1OC [Example 44B, N-((3S,4R)-1-((5,6-dimethoxypyridin-2-yl)carbonyl)-3-phenylpiperidin-4-yl)-3-(trifluoromethyl)pyridine-2-carboxamide] | 98 | – | 47 | – | –
5 | COc1cc(C(=O)N2CC[C@@H](NC(=O)c3ccccc3OC(F)(F)F)[C@@H](c3ccccc3)C2)cnc1OC [Example 70B, N-((3S,4R)-1-((5,6-dimethoxypyridin-3-yl)carbonyl)-3-phenylpiperidin-4-yl)-2-(trifluoromethoxy)benzamide] | 100 | – | 56 | – | –
6 | COc1ccc(C(=O)N2CC[C@H](NC(=O)c3ccccc3Cl)c3c2cnn3C(C)C)cc1OC [Example 74A, 2-Chloro-N-((7S)-4-(3,4-dimethoxybenzoyl)-1-isopropyl-4,5,6,7-tetrahydro-1H-pyrazolo[4,3-b]pyridin-7-yl)benzamide] | – | – | 51 | – | –
7 | COc1cc(C(=O)N2CCC(NC(=O)c3ccccc3OC(F)(F)F)c3c2cnn3C(C)C)cnc1OC (centres unmarked) [Example 132A, N-(4-((5,6-Dimethoxypyridin-3-yl)carbonyl)-1-isopropyl-4,5,6,7-tetrahydro-1H-pyrazolo[4,3-b]pyridin-7-yl)-2-(trifluoromethoxy)benzamide] | – | – | 52 | – | –
8 | COc1ccc(C(=O)N2CCC(NC(=O)c3ccccc3Cl)c3ccc(Cl)cc32)cc1OC (centres unmarked) [Example 201A, 2-Chloro-N-(7-chloro-1-(3,4-dimethoxybenzoyl)-1,2,3,4-tetrahydroquinolin-4-yl)benzamide] | – | – | 40 | – | –

Second part, led by results:

Row | inhibition at 1 µM [2] [%] | Rate of inhibition (%) at 1 μM ([2]; 1 μM test compound, SPT2-expressing membrane fraction) [%] | SMILES | inhibition at 1 µM [1, 3] [%] | Rate of inhibition (%) at 1 μM ([1]; 1 μM test compound) [%] | inhibition at 0.3 µM ([1]; Homo sapiens, 120 h, 0.3 μM test compound, read-out: Rate of inhibition at 0.3 μM) [%]
9 | 101 | – | Cc1cc(C(=O)N[C@@H]2CCN(C(=O)c3cc(Cl)c4nccnc4c3)C[C@@H]2c2ccccc2)n(C)n1 [Example 23B, N-((3S,4R)-1-((8-Chloroquinoxalin-6-yl)carbonyl)-3-phenylpiperidin-4-yl)-1,3-dimethyl-1H-pyrazole-5-carboxamide] | 53 | – | –
10 | – | 100 | CN(C)CCOc1ccc(C(=O)N[C@@H]2CCN(C(=O)c3cc(Cl)c4nccnc4c3)C[C@@H]2c2ccccc2)cn1 [Example 25B, N-((3S,4R)-1-((8-chloroquinoxalin-6-yl)carbonyl)-3-phenylpiperidin-4-yl)-6-(2-(dimethylamino)ethoxy) nicotinamide] | – | 53 | –
11 | 102 | – | O=C(N[C@@H]1CCN(C(=O)c2cc(Cl)c3nccnc3c2)C[C@@H]1c1ccccc1)c1ncccc1OC(F)F [Example 31B, N-((3S,4R)-1-((8-Chloroquinoxalin-6-yl)carbonyl)-3-phenylpiperidin-4-yl)-3-(difluoromethoxy)pyridine-2-carboxamide] | 57 | – | –
12 | 101 | – | CN(C)CCOc1cc(C(F)(F)F)c(C(=O)N[C@@H]2CCN(C(=O)c3cc(Cl)c4nccnc4c3)C[C@@H]2c2ccccc2)cn1 [Example 38B, N-((3S,4R)-1-((8-chloroquinoxalin-6-yl)carbonyl)-3-phenylpiperidin-4-yl)-6-(2-(dimethylamino)ethoxy)-4-(trifluoromethyl)nicotinamide] | 46 | – | –
13 | 96 | – | O=C(N[C@@H]1CCN(C(=O)c2ccc3nccnc3c2)C[C@@H]1c1ccccc1)c1ccccc1OC(F)(F)F [Example 57B, N-((3S,4R)-3-phenyl-1-(quinoxalin-6-ylcarbonyl)piperidin-4-yl)-2-(trifluoromethoxy) benzamide] | 54 | – | –
14 | 101 | – | Cc1cc(C(=O)N[C@@H]2CCN(C(=O)c3cc(Cl)c4nccnc4c3)C[C@@H]2c2ccc(F)cc2)n(C)n1 [Example 58B, N-((3S,4R)-1-((8-chloroquinoxalin-6-yl)carbonyl)-3-(4-fluorophenyl)piperidin-4-yl)-1,3-dimethyl-1H-pyrazole-5-carboxamide] | 49 | – | –
15 | 101 | – | Cc1nn(C)c(Cl)c1C(=O)N[C@@H]1CCN(C(=O)c2cc(Cl)c3nccnc3c2)C[C@@H]1c1ccc(F)cc1 [Example 59B, 5-Chloro-N-((3S,4R)-1-((8-chloroquinoxalin-6-yl)carbonyl)-3-(4-fluorophenyl)piperidin-4-yl)-1,3-dimethyl-1H-pyrazole-4-carboxamide] | – | – | 53
16 | 100 | – | COc1cc(C(=O)N2CC[C@@H](NC(=O)c3ncccc3C(F)(F)F)[C@@H](c3ccccc3)C2)cnc1OC [Example 64B, N-((3S,4R)-1-((5,6-dimethoxypyridin-3-yl)carbonyl)-3-phenylpiperidin-4-yl)-3-(trifluoromethyl)pyridine-2-carboxamide] | 49 | – | –
